In patent US20160115200A1, “New Use for JNK Inhibitor Molecules for Treatment of Various Diseases” (XIGEN INFLAMMATION LTD., priority 2013, published 2016):
Square brackets hold non-standard residues; d marks the D form. Ends that are not written are not given here.

Experiments:
[1] = system: endotoxins-induced uveitis albino rat model; test: Endotoxins-induced uveitis (EIU), single intravenous injection, clinical scoring 24 h after LPS; type: in vivo; set-up: key to EIU clinical score, median: clinical score per eye, 0 to 4 scale
Experimental: The aim of this study was to determine the effects of single intravenous injections of SEQ ID NO: 172 (0.015, 0.18, and 1.80 mg/kg) on the inflammatory response in an endotoxins-induced uveitis albino rat model and to compare these affects to those obtained with prior art JNK inhibitor of SEQ ID NO: 197 (2 mg/kg). As a further control served phosphate sodic dexamethasone.
Sixty (60) male Lewis rats were randomly divided into six (6) groups of ten (10) animals each. EIU was induced by footpad injection of lipopolysaccharide (LPS, 1 mg/kg). NaCl (0.9%), SEQ ID NO: 197 at 2 mg/kg and SEQ ID NO: 172 at three concentrations (1.80 mg/kg, 0.18 mg/kg and 0.015 mg/kg) were administered by intravenous injection. Phosphate sodic dexamethasone (20 μg/eye) was administered by sub-conjunctival injection in both eyes. 24 hours after LPS injection, inflammatory response was evaluated by clinical scoring.
The intensity of clinical ocular inflammation was scored on a scale from 0 to 4 for each eye: […]

[2] = system: primary rat lymph-nodes purified T cells; test: CD3/CD28-induced IL-2 release in primary rat lymph-nodes purified T cells; type: cell-based; settings: inhibitor 1 h before CD3/CD28 (2 μg/mL), supernatant after 24 h
Experimental: Control rat were sacrificed and lymph-nodes were harvested. T cells further were purified (using magnetic negative selection) and plated into 96-well plates at 200.000 cells/well. Cells were treated with anti-rat CD3 and anti-rat CD28 antibodies (2 μg/mL). JNK inhibitor with SEQ ID NO: 172 was added to the cultures 1 h before CD3/CD28 treatment and IL-2 release was assessed in supernatant 24 h after treatment.
Control animal were sacrificed, lymph nodes (LN) were harvested and kept in complete RPMI medium. LN were smashed with complete RPMI on 70 μm filter using a 5 ml piston. A few drops of media were added to keep strainer wet. Cells were centrifuged for 7 min at 450 g and 4° C. Pellet was resuspended in 5 ml fresh medium. Cells were passed again through cell strainer. An aliquot of cells was counted, while cells were centrifuged again 10 min at 1400 rpm and 4° C. Cells were resupended in MACS buffer (80 μl of MACS buffer per 10^7 cells). 10 μl of anti-rat MHC microbeads were added per 10 million cells, cells were incubated for 15 min at 4°-8° C. Cells were washed with 15 ml MACS buffer and centrifuge for 7 min at 700 g and 4° C. […] Resuspended cells were counted and plated at density of 200000 cells/well in 100 μl of complete medium. […] Cytokines were then measured using standard Elisa kits. Results are expressed as pg/ml of supernatant of the measured cytokine. […]

[3] = system: mouse model of scopolamine-induced dry eye; test: Scopolamine-induced dry eye in mice (TBUT, PRTT, histopathology); type: in vivo
Description: The objective of this study was to assess the effects of two different compounds, the all-D-retro-inverso JNK-inhibitor (poly-)peptide of SEQ ID NO: 197 and the JNK inhibitor (poly-)peptide of SEQ ID NO: 172, at three dose levels in a mouse model of scopolamine-induced dry eye.
The study consisted of a total of 9 groups of female C57BL/6 mice, comprising 8 groups of 12 mice each and an additional group of 4 mice. Bilateral short-term dry eye was induced by a combination of scopolamine hydrobromide (Sigma-Aldrich Corp., St. Louis, Mo.) injection (subcutaneous (SC), four times daily, 0.5 mg/dose, Days 0-21) and by exposing mice to the drying environment of constant air draft. […] Mice of Group 9 were maintained as un-induced, (no dry eye) untreated controls.
During the in-life (treatment) period, clinical observations were recorded once daily; slit-lamp examination (SLE) with corneal fluorescein staining, tear break-up time test (TBUT), and phenol red thread test (PRTT) were performed three times per week. Necropsies were performed on Day 22; eyes, eye lids, conjunctivae, and lacrimal glands were collected from both eyes of each animal. Tissues from the right eyes (oculus dexter, OD) were fixed and then evaluated microscopically. Tissues from the left eyes (oculus sinister; OS) were flash-frozen in liquid nitrogen and stored frozen at −80° C. for possible subsequent analyses.
The TBUT test was conducted three times weekly by measuring the time elapsed in seconds between a complete blink after application of fluorescein to the cornea and the appearance of the first random dry spot in the tear film. […] At least ninety seconds later, corneal epithelial damage was graded using a slit-lamp with a cobalt blue filter after another drop of 0.1% fluorescein was reapplied to the cornea; the cornea then was scored per the Draize ocular scale.
Tear production was measured three times a week in both eyes using PRTT test strips (Zone-Quick; Menicon, Nagoya, Japan). Prior to the first treatment of the day, a thread was applied to the lateral canthus of the conjunctival fornix of each eye for 30 seconds under slit-lamp biomicroscopy. Tear migration up the tread (i.e., the length of the wetted cotton thread) was measured using a millimeter scale.
At necropsy on Day 22, both eyes from each animal, including the globes, lacrimal glands, eyelids, and conjunctivae, were excised. The right eye and associated tissues were fixed by overnight submersion in modified Davidson's solution followed by transfer to 10% neutral buffered formalin (NBF). The fixed tissues of the right eye were dehydrated, embedded in paraffin, sectioned at 3 to 5-μm thicknesses, and slide-mounted tissues were stained with hematoxylin and eosin (H & E). Stained slides were evaluated via light microscopy. Detailed and complete histopathologic assessment was conducted on all parts of the eye, with at least two section levels being examined histopathologically for each right eye. Special attention was paid to the cornea, epithelia (including goblet cells) of the conjunctiva and cornea, as well as the lacrimal gland. These tissues were scored for injury based upon a 0-4 scale, with 0 being normal, 1 being minimal, 2 being mild, 3 being moderate, and 4 being severe. For each cornea, scores were based on corneal epithelium thickness, and corneal inflammation. Conjunctivae were scored for erosion and inflammation as well as presence or absence of goblet cells.

[4] = 2 mg/kg i.v., 24 hours after LPS

dqsrpvqpflnlttprkprpprrrqrrkkrg ([dD][dQ][dS][dR][dP][dV][dQ][dP][dF][dL][dN][dL][dT][dT][dP][dR][dK][dP][dR][dP][dP][dR][dR][dR][dQ][dR][dR][dK][dK][dR]G) [SEQ ID NO: 197, reference compound]
EIU clinical score, median [1, 4]: 2 | decrease of EIU scores compared with vehicle group [1, 4]: 40% | EIU clinical score, mean±SEM ([1]; 2 mg/kg i.v., 24 hours after LPS, scale 0 to 4 (+1)): 2.2±0.3 | endotoxin-induced inflammation in the anterior chamber ([1]; single intravenous injection 2 mg/kg): partially prevented the endotoxin-induced inflammation | CD3/CD28-induced IL-2 release [2]: Dose-dependent inhibition | Mean PRTT AUC ([3]; Day 7-21, high dose 0.6% (SEQ ID NO: 197 Group 4; SEQ ID NO: 172 Group 7)): 43.17 | Mean PRTT AUC ([3]; Day 7-21, low dose (SEQ ID NO: 197 0.06% Group 2; SEQ ID NO: 172 0.05% Group 5)): 39.96 | Mean PRTT AUC ([3]; Day 7-21, mid dose (SEQ ID NO: 197 0.25% Group 3; SEQ ID NO: 172 0.2% Group 6)): 42.79 | Mean Calculated TBUT AUC ([3]; Day 7 to Day 21, high dose 0.6% (SEQ ID NO: 197 Group 4; SEQ ID NO: 172 Group 7)): 89.98 | Mean Calculated TBUT AUC ([3]; Day 7 to Day 21, low dose (SEQ ID NO: 197 0.06% Group 2; SEQ ID NO: 172 0.05% Group 5)): 88.54 | Mean Calculated TBUT AUC ([3]; Day 7 to Day 21, mid dose (SEQ ID NO: 197 0.25% Group 3; SEQ ID NO: 172 0.2% Group 6)): 91.19 | PRTT change with dose ([3]; SEQ ID NO: 197 0.06%, 0.25% and 0.6%, Groups 2, 3 and 4): generally dose-dependent increases in PRTT | TBUT change with dose ([3]; SEQ ID NO: 197 low, mid and high dose (Groups 2-4)): slight generally dose-dependent increases in TBUT | corneal changes (histology) compared with other treatment groups ([3]; low dose SEQ ID NO: 197 (Group 2)): slightly more severe | histological cornea scores compared with cyclosporine group ([3]; mid and high-dose SEQ ID NO: 172 (Groups 6, 7), high-dose SEQ ID NO: 197 (Group 4)): not significantly different than the cyclosporine group scores
